Tests used:
[1] = tested on: tunicamycin sensitive clone JMEC; test: Apoptosis and recovery in the tunicamycin sensitive cell clone; type: cell-based, bovine
Source text: To understand the precise molecular mechanism of tunicamycin induced apoptosis of capillary endothelial cells, a cell clone was isolated from the parental culture that was maintained in a serum-free media for six weeks following synchronization. The morphology of these cells and their growth profile appear quite different. For example, the shapes are more spindle-like, resembling Kaposi's Sarcoma lesions endothelial cells, as disclosed in FIORELLI et al., “Cytokines from Activated T Cells Induce Normal Endothelial Cells to Acquire the Phenotypic and Functional Features of AIDS-Kaposi's Sarcoma Spindle Cells”, J. Clin. Invest., 95:1723-1734 (1995), the disclosure of which is herein incorporated by reference in its entirety. The cells undergo two-population doubling in 2% (v/v) fetal bovine serum, differentiate in 5 days, and complete one cell cycle in approximately 56 hours (FIG. 4).
There was no recovery after exposing the cells to 1 μg/ml-10 μg/ml tunicamycin for 72 hours or more (not all data shown).

Factor VIII:C = Factor VIII:C level by enzyme-linked immunoassay (ELISA); type: cell-based, bovine; conditions: 1 μg/ml tunicamycin
Description: In conducting ELISA, 96-well microtiter EIA plates, available from Corning Inc., Corning, N.Y., were coated overnight at 4° C. with 50 μl mouse monoclonal anti-Factor VIII:C antibody (i.e., IgG1k which is commercially available from Molecular Biochemicals (previously known as “Boehringer-Mannheim”), Indianapolis, Ind. (diluted 1:500) in 100 mM sodium carbonate buffer, pH 9.2. Blank wells were coated similarly with 0.25 μg of bovine serum albumin (BSA). The plates were washed three times 50 μl each wash with 50 mM Tris-HCl, pH 7.5 containing 150 mM NaCl and 0.5% (v/v) Tween-20 (TBST), available from Bio-Rad Laboratories, Richmond, Calif. and incubated at 37° C. for one hour with 50 μl conditioned media or cell lysates. The cell lysates were obtained by incubating for 20 minutes with 1 ml of ice-cold 20 mM TRIS-HCL, pH 8.0 buffer containing 150 mM NaCl, 1% (v/v) NP-40 and 1 μg/ml aprotinin. At the end of the incubation, the plates were washed three times with TBST, as above, and incubated at 37° C. for another hour with 50 μl of 1:500 diluted monoclonal anti-Factor VIII:C antibody. […] The absorbance was read at approximately 405 nm after 30 minutes by using an EIA microplate reader, Model 2550 with a 405 nm filter, both available from Bio-Rad Laboratories, Richmond, Calif. […]

tunicamycin
concentration for apoptosis less than needed for parental cells ([1]; 10 ng/ml in clone versus parental cells): 100 fold
cells recovered in 5 days ([1]; 10 ng/ml tunicamycin for 24 hours): approximately 60%
apoptosis of the sensitive clone ([1]; 10 ng/ml tunicamycin, 32 hours): undergoes apoptosis
cells recovered in 5 days ([1]; 1 μg/ml tunicamycin for 48 hours): recovered similarly
recovery of cells ([1]; 1 μg/ml-10 μg/ml tunicamycin for 72 hours or more): no recovery
cells recovered ([1]; 10 μg/ml tunicamycin for 48 hours): less than 20%
time from which Factor VIII:C level started increasing (Factor VIII:C): ≥ 32 h
level of immunopositive Factor VIII:C versus controls (Factor VIII:C; conditioned media and cell lysates): high level

— patent US7361643B2, “Methods for inhibiting angiogenesis” (University of Puerto Rico, priority 2000, dated 2008)
